#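 48-hour exposure; five concentrations; linearly interpolated endpoints. TGI: total growth inhibition.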
# Key:
# Assay in all cases: inhibition of tumour cell growth, NCI panel, 48 h
# 786-0 renal = system: 786-0 renal
# A498 renal = system: A498 renal
# A549 NSCLC = system: A549 NSCLC
# ACHN renal = system: ACHN renal
# BT-549 breast = system: BT-549 breast
# CAKI-1 renal = system: CAKI-1 renal
# CCRF-CEM leukemia = system: CCRF-CEM leukemia
# COLO 205 colon = system: COLO 205 colon
# DU-145 prostate = system: DU-145 prostate
# EKVX NSCLC = system: EKVX NSCLC
# HCC-2998 colon = system: HCC-2998 colon
# HCT-116 colon = system: HCT-116 colon
# HCT-15 colon = system: HCT-15 colon
# HL-60(TB) leukemia = system: HL-60(TB) leukemia
# HOP-62 NSCLC = system: HOP-62 NSCLC
# HOP-92 NSCLC = system: HOP-92 NSCLC
# HS 578T breast = system: HS 578T breast
# HT29 colon = system: HT29 colon
# IGROV1 ovarian = system: IGROV1 ovarian
# K-562 leukemia = system: K-562 leukemia
# KM12 colon = system: KM12 colon
# LOX IMVI melanoma = system: LOX IMVI melanoma
# M14 melanoma = system: M14 melanoma
# MALME-3M melanoma = system: MALME-3M melanoma
# MCF7 breast = system: MCF7 breast
# MDA-MB-231 breast = system: MDA-MB-231 breast
# MDA-MB-435 = system: MDA-MB-435
# MDA-N = system: MDA-N
# MOLT-4 leukemia = system: MOLT-4 leukemia
# NCI-H226 lung = system: NCI-H226 lung
# NCI-H23 lung = system: NCI-H23 lung
# NCI-H460 lung = system: NCI-H460 lung
# NCI-H522 lung = system: NCI-H522 lung
# NCI/ADR-RES ovarian = system: NCI/ADR-RES ovarian
# OVCAR-3 ovarian = system: OVCAR-3 ovarian
# OVCAR-4 ovarian = system: OVCAR-4 ovarian
# OVCAR-5 ovarian = system: OVCAR-5 ovarian
# OVCAR-8 ovarian = system: OVCAR-8 ovarian
# PC-3 prostate = system: PC-3 prostate
# RPMI-8226 leukemia = system: RPMI-8226 leukemia
# RXF 393 renal = system: RXF 393 renal
# SF-268 CNS = system: SF-268 CNS
# SF-295 CNS = system: SF-295 CNS
# SF-539 CNS = system: SF-539 CNS
# SK-MEL-2 melanoma = system: SK-MEL-2 melanoma
# SK-MEL-28 melanoma = system: SK-MEL-28 melanoma
# SK-MEL-5 melanoma = system: SK-MEL-5 melanoma
# SK-OV-3 ovarian = system: SK-OV-3 ovarian
# SN12C renal = system: SN12C renal
# SNB-19 CNS = system: SNB-19 CNS
# SNB-75 CNS = system: SNB-75 CNS
# SR leukemia = system: SR leukemia
# SW-620 colon = system: SW-620 colon
# T-47D breast = system: T-47D breast
# TK-10 renal = system: TK-10 renal
# U251 CNS = system: U251 CNS
# UACC-257 melanoma = system: UACC-257 melanoma
# UACC-62 melanoma = system: UACC-62 melanoma
# UO-31 renal = system: UO-31 renal
smiles,measurement,setting,value
NCCc1c[nH]c2ccc(OC(=O)C(=O)O)cc12,TGI,786-0 renal,> 100 µM
same,TGI,A498 renal,> 100 µM
same,TGI,A549 NSCLC,> 100 µM
same,TGI,ACHN renal,> 100 µM
same,TGI,BT-549 breast,> 100 µM
same,TGI,CAKI-1 renal,> 100 µM
same,TGI,CCRF-CEM leukemia,> 100 µM
same,TGI,COLO 205 colon,> 100 µM
same,TGI,DU-145 prostate,> 100 µM
same,TGI,EKVX NSCLC,> 100 µM
same,TGI,HCC-2998 colon,> 100 µM
same,TGI,HCT-116 colon,> 100 µM
same,TGI,HCT-15 colon,> 100 µM
same,TGI,HL-60(TB) leukemia,23.2 µM
same,TGI,HOP-62 NSCLC,> 100 µM
same,TGI,HOP-92 NSCLC,> 100 µM
same,TGI,HS 578T breast,> 100 µM
same,TGI,HT29 colon,> 100 µM
same,TGI,IGROV1 ovarian,> 100 µM
same,TGI,K-562 leukemia,> 100 µM
same,TGI,KM12 colon,> 100 µM
same,TGI,LOX IMVI melanoma,> 100 µM
same,TGI,M14 melanoma,> 100 µM
same,TGI,MALME-3M melanoma,> 100 µM
same,TGI,MCF7 breast,> 100 µM
same,TGI,MDA-MB-231 breast,> 100 µM
same,TGI,MDA-MB-435,> 100 µM
same,TGI,MDA-N,> 100 µM
same,TGI,MOLT-4 leukemia,> 100 µM
same,TGI,NCI-H226 lung,> 100 µM
same,TGI,NCI-H23 lung,> 100 µM
same,TGI,NCI-H460 lung,> 100 µM
same,TGI,NCI-H522 lung,> 100 µM
same,TGI,NCI/ADR-RES ovarian,> 100 µM
same,TGI,OVCAR-3 ovarian,> 100 µM
same,TGI,OVCAR-4 ovarian,> 100 µM
same,TGI,OVCAR-5 ovarian,> 100 µM
same,TGI,OVCAR-8 ovarian,> 100 µM
same,TGI,PC-3 prostate,> 100 µM
same,TGI,RPMI-8226 leukemia,> 100 µM
same,TGI,RXF 393 renal,> 100 µM
same,TGI,SF-268 CNS,> 100 µM
same,TGI,SF-295 CNS,> 100 µM
same,TGI,SF-539 CNS,> 100 µM
same,TGI,SK-MEL-2 melanoma,> 100 µM
same,TGI,SK-MEL-28 melanoma,> 100 µM
same,TGI,SK-MEL-5 melanoma,> 100 µM
same,TGI,SK-OV-3 ovarian,> 100 µM
same,TGI,SN12C renal,> 100 µM
same,TGI,SNB-19 CNS,> 100 µM
same,TGI,SNB-75 CNS,> 100 µM
same,TGI,SR leukemia,> 100 µM
same,TGI,SW-620 colon,> 100 µM
same,TGI,T-47D breast,> 100 µM
same,TGI,TK-10 renal,> 100 µM
same,TGI,U251 CNS,> 100 µM
same,TGI,UACC-257 melanoma,> 100 µM
same,TGI,UACC-62 melanoma,> 100 µM
same,TGI,UO-31 renal,> 100 µM
